System: MatTek's MelanoDerm skin epidermal equivalent tissues (MEL-300-B; NHEK and NHM)
Assay: Skin Epidermal Equivalents Model as a Skin Lightening Test (ΔL)
Format: cell-based, human
Excerpt: Skin Epidermal Equivalents Model as a Skin Lightening Test (ΔL)
Skin epidermal equivalent tissues are available commercially from MatTek's MelanoDerm™ System and were used for the following tests. MatTek's MelanoDerm™ System consists of normal, human-derived epidermal keratinocytes (NHEK) and melanocytes (NHM) which have been cultured to form a multilayered, highly differentiated model of the human epidermis. Specifically, MEL-300-B tissues, each 9 mm in diameter were used in the following tests.
The test materials prepared in an appropriate vehicle and tested concentrations were applied topically to the skin model daily and the experiment lasted for 8 days. Measurement was taken on day 9.
The macroscopic and microscopic visual tissue darkening end points were measured by taking pictures with a digital camera. The Degree of Lightness for each tissue (L-Value) was measured using a spectrophotometer (Konica Minolta CM-2600d). The ΔL (degree of lightness as compared to control) for each test sample is calculated as per following formula: ΔL=L-value of treated sample−L-value of control sample.

## CC(C)=CCCC(C)=CCCC(C)=CCOc1ccc(CCC(=O)O)cc1 [M-1, 3-(4-Farnesyloxyphenyl)propionic acid]
Concentration 0.5%, topical daily for 8 days, measured day 9
  Skin Lightening (ΔL Value): 1.2
Same concentration (0.5%) as E1
  Skin lightening efficacy compared with first extract E1: equal to first extract E1
